Experimental data as given in ChEMBL document CHEMBL1201862, “PubChem BioAssay data set” (2004).
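All cell lines were grown in 96-well plates and treated with compound for 48 hours. Abbreviation: GI50, concentration required for 50% inhibition of growth.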 Calls of active or inactive are those of the source. No stated cut-off is given here; in the data, active = GI50 up to about 1.1 µM and inactive = higher.

Tests used:
Assay in all cases: NCI-60 cell line screen, 48 h
[1] = test system: 786-0
[2] = test system: A498
[3] = test system: A549
[4] = test system: ACHN
[5] = test system: CAKI-1
[6] = test system: CCRF-CEM
[7] = test system: COLO 205
[8] = test system: DU-145
[9] = test system: HCC 2998
[10] = test system: HCT-116
[11] = test system: HCT-15
[12] = test system: HOP-62
[13] = test system: HOP-92
[14] = test system: HT-29
[15] = test system: Hs-578T
[16] = test system: IGROV-1
[17] = test system: K562
[18] = test system: KM12
[19] = test system: LOX IMVI
[20] = test system: M14
[21] = test system: MDA-MB-231
[22] = test system: MDA-MB-435
[23] = test system: MDA-N
[24] = test system: MOLT-4
[25] = test system: NCI-H226
[26] = test system: NCI-H23
[27] = test system: NCI-H460
[28] = test system: NCI-H522
[29] = test system: NCI/ADR-RES
[30] = test system: OVCAR-3
[31] = test system: OVCAR-4
[32] = test system: OVCAR-5
[33] = test system: OVCAR-8
[34] = test system: PC-3
[35] = test system: RPMI-8226
[36] = test system: RXF 393
[37] = test system: SF-268
[38] = test system: SF-295
[39] = test system: SK-MEL-28
[40] = test system: SK-MEL-2
[41] = test system: SK-MEL-5
[42] = test system: SN12C
[43] = test system: SNB-19
[44] = test system: SNB-75
[45] = test system: SR
[46] = test system: SW-620
[47] = test system: T47D
[48] = test system: TK-10
[49] = test system: U-251
[50] = test system: UACC-257
[51] = test system: UACC-62
[52] = test system: UO-31
[53] = test system: EKVX
[54] = test system: HL-60
[55] = test system: MCF7
[56] = test system: Malme-3M
[57] = test system: SF-539
[58] = test system: SK-OV-3

Compound: CC(=O)Nc1ccc(-c2nc3ccccc3s2)cc1O
- GI50 [1]: 41.1 µM (inactive)
- GI50 [2]: 69.7 µM (inactive)
- GI50 [3]: 40.1 µM (inactive)
- GI50 [4]: 27.3 µM (inactive)
- GI50 [5]: 27 µM (inactive)
- GI50 [6]: 22.2 µM (inactive)
- GI50 [7]: 33.8 µM (inactive)
- GI50 [8]: 34.8 µM (inactive)
- GI50 [9]: 30.6 µM (inactive)
- GI50 [10]: 56.1 µM (inactive)
- GI50 [11]: 41.2 µM
- GI50 [12]: 32.3 µM (inactive)
- GI50 [13]: 65.9 µM (inactive)
- GI50 [14]: 34.7 µM (inactive)
- GI50 [15]: 50.1 µM (inactive)
- GI50 [16]: 20.9 µM (inactive)
- GI50 [17]: 76.2 µM (inactive)
- GI50 [18]: 17.2 µM (inactive)
- GI50 [19]: 41.3 µM (inactive)
- GI50 [20]: 59.2 µM (inactive)
- GI50 [21]: 78.2 µM (inactive)
- GI50 [22]: 37.8 µM (inactive)
- GI50 [23]: 29.6 µM (inactive)
- GI50 [24]: 14.6 µM (inactive)
- GI50 [25]: 16.9 µM (inactive)
- GI50 [26]: 24.5 µM (inactive)
- GI50 [27]: 28.6 µM (inactive)
- GI50 [28]: 2.22 µM (inactive)
- GI50 [29]: 17.1 µM (inactive)
- GI50 [30]: 94.8 µM (inactive)
- GI50 [31]: 92.3 µM (inactive)
- GI50 [32]: 23 µM (inactive)
- GI50 [33]: 19.8 µM (inactive)
- GI50 [34]: 51.2 µM (inactive)
- GI50 [35]: 21 µM (inactive)
- GI50 [36]: > 100 µM (inactive)
- GI50 [37]: 27.8 µM (inactive)
- GI50 [38]: 52.6 µM (inactive)
- GI50 [39]: 80.5 µM (inactive)
- GI50 [40]: 49.1 µM (inactive)
- GI50 [41]: 20.4 µM (inactive)
- GI50 [42]: 30.4 µM (inactive)
- GI50 [43]: > 100 µM (inactive)
- GI50 [44]: 24.8 µM (inactive)
- GI50 [45]: 61.9 µM (inactive)
- GI50 [46]: 84.5 µM (inactive)
- GI50 [47]: 36.1 µM (inactive)
- GI50 [48]: 32.4 µM (inactive)
- GI50 [49]: 37.4 µM (inactive)
- GI50 [50]: 31.6 µM (inactive)
- GI50 [51]: 18.1 µM (inactive)
- GI50 [52]: 19.6 µM (inactive)

Compound: COC(=O)CCCC(=O)NC1=C(Nc2ccccc2)C(=O)c2ccccc2C1=O
- GI50 [1]: 17.9 µM (inactive)
- GI50 [2]: 16.9 µM (inactive)
- GI50 [3]: 19.5 µM (inactive)
- GI50 [4]: 19.3 µM (inactive)
- GI50 [5]: 20.1 µM (inactive)
- GI50 [6]: 22.8 µM (inactive)
- GI50 [7]: 16.3 µM (inactive)
- GI50 [8]: 15.2 µM (inactive)
- GI50 [53]: 24.4 µM (inactive)
- GI50 [9]: 14.7 µM (inactive)
- GI50 [10]: 16.6 µM (inactive)
- GI50 [11]: 15.1 µM
- GI50 [54]: 20.5 µM (inactive)
- GI50 [13]: 21.8 µM (inactive)
- GI50 [15]: 28.7 µM (inactive)
- GI50 [16]: 16 µM (inactive)
- GI50 [17]: 19.2 µM (inactive)
- GI50 [18]: 5.24 µM (inactive)
- GI50 [19]: 17.4 µM (inactive)
- GI50 [20]: 16.1 µM (inactive)
- GI50 [55]: 15.4 µM (inactive)
- GI50 [21]: 19.1 µM (inactive)
- GI50 [22]: 5.51 µM (inactive)
- GI50 [23]: 3.89 µM (inactive)
- GI50 [24]: 16.6 µM (inactive)
- GI50 [56]: 3.56 µM (inactive)
- GI50 [26]: 10.6 µM (inactive)
- GI50 [27]: 16.6 µM (inactive)
- GI50 [28]: 16.9 µM (inactive)
- GI50 [29]: 18.2 µM (inactive)
- GI50 [30]: 12.6 µM (inactive)
- GI50 [31]: 19.3 µM (inactive)
- GI50 [32]: 16.8 µM (inactive)
- GI50 [33]: 31.9 µM (inactive)
- GI50 [35]: 17.6 µM (inactive)
- GI50 [37]: 30.7 µM (inactive)
- GI50 [38]: 17.5 µM (inactive)
- GI50 [57]: 18.6 µM (inactive)
- GI50 [39]: 16.7 µM (inactive)
- GI50 [40]: 18.1 µM (inactive)
- GI50 [58]: 22.5 µM (inactive)
- GI50 [42]: 18 µM (inactive)
- GI50 [43]: 18.2 µM (inactive)
- GI50 [44]: 18.4 µM (inactive)
- GI50 [45]: 30.2 µM (inactive)
- GI50 [46]: 25.2 µM (inactive)
- GI50 [47]: 24.3 µM (inactive)
- GI50 [48]: 26.8 µM (inactive)
- GI50 [49]: 14.4 µM (inactive)
- GI50 [50]: 13.3 µM (inactive)
- GI50 [51]: 3.27 µM (inactive)
- GI50 [52]: 21.2 µM (inactive)

Compound: C=CC1CN2CCC1CC2C(O)c1ccnc2ccc(OC)cc12 (stereo not given)
- GI50 [26]: 89.1 µM (inactive)
